From ChEMBL document CHEMBL1201862, “PubChem BioAssay data set” (2004)
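Following 48 hours of exposure in 96-well plates, responses at five concentrations were used to interpolate endpoints linearly. The concentration for 50% growth inhibition is given as GI50.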 Active and inactive are the calls of the source. Rule as the data show it: active = GI50 up to about 1.1 µM and inactive = higher.

Experiments:
Test in all cases: growth of human tumour cells (NCI), 48 h
786-0 = system: 786-0
CCRF-CEM = system: CCRF-CEM
EKVX = system: EKVX
HCC 2998 = system: HCC 2998
HOP-62 = system: HOP-62
HOP-92 = system: HOP-92
IGROV-1 = system: IGROV-1
OVCAR-5 = system: OVCAR-5
PC-3 = system: PC-3
SF-295 = system: SF-295
SF-539 = system: SF-539
SK-MEL-5 = system: SK-MEL-5
SK-OV-3 = system: SK-OV-3
SN12C = system: SN12C
SW-620 = system: SW-620
TK-10 = system: TK-10
U-251 = system: U-251
UACC-257 = system: UACC-257
UACC-62 = system: UACC-62
UO-31 = system: UO-31

Measured: GI50

COc1cccc2c(Nc3ccc(S(=O)(=O)NC(C)=O)cc3)c3ccc([N+](=O)[O-])cc3nc12
inactive: 786-0 33.3 µM | CCRF-CEM 55.5 µM | EKVX 40.6 µM | HCC 2998 44.9 µM | HOP-62 > 78.2 µM | HOP-92 26.2 µM | IGROV-1 11.3 µM | OVCAR-5 > 66.5 µM | PC-3 20.4 µM | SF-295 > 88.3 µM | SF-539 60.5 µM | SK-MEL-5 22.7 µM | SK-OV-3 > 100 µM | SN12C 57.1 µM | SW-620 45.7 µM | TK-10 22.4 µM | U-251 23.7 µM | UACC-257 25.9 µM | UACC-62 31.4 µM | UO-31 12.4 µM

CC(=O)OCC12C(OC(C)=O)C[C@@H](C)C3(CC(c4ccoc4)OC3=O)C1CCC(OC(C)=O)C21CO1 (stereo not given in full)
inactive: 786-0 > 100 µM | CCRF-CEM > 100 µM | EKVX > 100 µM | HCC 2998 > 100 µM | HOP-62 > 100 µM | HOP-92 > 100 µM | IGROV-1 > 100 µM | OVCAR-5 > 100 µM | PC-3 > 100 µM | SF-295 > 100 µM | SF-539 > 100 µM | SK-MEL-5 > 100 µM | SK-OV-3 > 100 µM | SN12C > 100 µM | SW-620 > 100 µM | TK-10 > 100 µM | U-251 > 100 µM | UACC-257 > 100 µM | UACC-62 > 100 µM | UO-31 > 100 µM
